Experimental data published in publication PMC5218480 (PLoS ONE, 2017).

Test system: MV-4-11 cells
Assay: Gene expression microarray analysis (Affymetrix PrimeView) and GSEA
Assay type: cell-based, human
Parameters: RFU PODN (11730768_x_at) / Fold change /veh PODN (11730768_x_at) / RFU LINC00158 (11744669_a_at) / Fold change /veh LINC00158 (11744669_a_at) / RFU DUSP10 (11751237_a_at) / Fold change /veh DUSP10 (11751237_a_at) / RFU ID3 (11757404_x_at) / Fold change /veh ID3 (11757404_x_at) / RFU PLEKHG5 (11737974_s_at) / Fold change /veh PLEKHG5 (11737974_s_at) / RFU LRRC4B (11730491_at) / Fold change /veh LRRC4B (11730491_at) / RFU GIMAP4 (11747438_a_at) / Fold change /veh GIMAP4 (11747438_a_at) / RFU KRT8 (11758183_x_at) / Fold change /veh KRT8 (11758183_x_at) / RFU CNN1 (11734310_a_at) / Fold change /veh CNN1 (11734310_a_at) / RFU VPS37D (11726825_at) / Fold change /veh VPS37D (11726825_at) / RFU C10orf10 (11716522_x_at) / Fold change /veh C10orf10 (11716522_x_at) / RFU KIR2DL2 /// KIR2DL4 /// KIR2DL5A /// KIR2DL5B /// KIR2DS1 /// KIR2DS2 /// KIR2DS3 /// KIR2DS4 /// KIR3DL3 /// KIR3DL3 /// KIR3DS1 (11738374_at) / Fold change /veh KIR2DL2 /// KIR2DL4 /// KIR2DL5A /// KIR2DL5B /// KIR2DS1 /// KIR2DS2 /// KIR2DS3 /// KIR2DS4 /// KIR3DL3 /// KIR3DL3 /// KIR3DS1 (11738374_at) / RFU C1QL1 (11718748_at) / Fold change /veh C1QL1 (11718748_at) / RFU TMPRSS4 (11747572_a_at) / Fold change /veh TMPRSS4 (11747572_a_at) / RFU HAMP (11756126_x_at) / Fold change /veh HAMP (11756126_x_at) / RFU RNFT2 (11725882_a_at) / Fold change /veh RNFT2 (11725882_a_at) / RFU NR4A2 (11747474_a_at) / Fold change /veh NR4A2 (11747474_a_at) / RFU ABCC12 (11746883_a_at) / Fold change /veh ABCC12 (11746883_a_at) / RFU TMEM136 (11760407_x_at) / Fold change /veh TMEM136 (11760407_x_at) / RFU CLDN22 /// WWC2 (11732394_at) / Fold change /veh CLDN22 /// WWC2 (11732394_at) / RFU HLA-DPB1 (11760878_x_at) / Fold change /veh HLA-DPB1 (11760878_x_at) / RFU SPINT1 (11716480_a_at) / Fold change /veh SPINT1 (11716480_a_at) / RFU GAP43 (11754022_s_at) / Fold change /veh GAP43 (11754022_s_at) / RFU A4GNT (11735810_at) / Fold change /veh A4GNT (11735810_at) / RFU PRB3 (11715151_x_at) / Fold change /veh PRB3 (11715151_x_at) / RFU TUBB4B (11761932_at) / Fold change /veh TUBB4B (11761932_at) / RFU CAPN14 (11732068_a_at) / Fold change /veh CAPN14 (11732068_a_at) / RFU TMCC2 (11721928_a_at) / Fold change /veh TMCC2 (11721928_a_at) / RFU IRGQ (11745062_a_at) / Fold change /veh IRGQ (11745062_a_at) / RFU FAM174B (11720279_a_at) / Fold change /veh FAM174B (11720279_a_at) / RFU TMPRSS4 (11748680_a_at) / Fold change /veh TMPRSS4 (11748680_a_at) / RFU FAM212B (11763350_a_at) / Fold change /veh FAM212B (11763350_a_at) / RFU PLEKHG5 (11743358_a_at) / Fold change /veh PLEKHG5 (11743358_a_at) / RFU ZSCAN30 (11745921_a_at) / Fold change /veh ZSCAN30 (11745921_a_at) / RFU CMKLR1 (11741424_a_at) / Fold change /veh CMKLR1 (11741424_a_at) / RFU LOC101060620 /// MAPK8IP1 (11723275_at) / Fold change /veh LOC101060620 /// MAPK8IP1 (11723275_at) / RFU SPTSSB (11747773_x_at) / Fold change /veh SPTSSB (11747773_x_at) / RFU PRSS12 (11739890_at) / Fold change /veh PRSS12 (11739890_at) / RFU BIN1 (11741810_x_at) / Fold change /veh BIN1 (11741810_x_at) / RFU WNT11 (11732464_a_at) / Fold change /veh WNT11 (11732464_a_at) / RFU C10orf10 (11716521_a_at) / Fold change /veh C10orf10 (11716521_a_at) / RFU C5orf56 (11738089_at) / Fold change /veh C5orf56 (11738089_at) / RFU CYB561 (11721691_x_at) / Fold change /veh CYB561 (11721691_x_at) / RFU ANKRD19P (11752326_a_at) / Fold change /veh ANKRD19P (11752326_a_at) / RFU OR2T12 /// OR2T33 /// OR2T8 (11738714_s_at) / Fold change /veh OR2T12 /// OR2T33 /// OR2T8 (11738714_s_at) / RFU VCAN (11748164_a_at) / Fold change /veh VCAN (11748164_a_at) / RFU JSRP1 (11732532_at) / Fold change /veh JSRP1 (11732532_at) / RFU KRTAP10-11 (11738290_x_at) / Fold change /veh KRTAP10-11 (11738290_x_at) / RFU MYO3A (11730013_a_at) / Fold change /veh MYO3A (11730013_a_at) / RFU EBF3 (11725865_a_at) / Fold change /veh EBF3 (11725865_a_at) / RFU CAMK2N1 (11719241_x_at) / Fold change /veh CAMK2N1 (11719241_x_at) / RFU C5orf56 (11738088_a_at) / Fold change /veh C5orf56 (11738088_a_at) / RFU OLFML3 (11715873_a_at) / Fold change /veh OLFML3 (11715873_a_at) / RFU LOC100653217 /// NTM (11731650_a_at) / Fold change /veh LOC100653217 /// NTM (11731650_a_at) / RFU MAPK11 (11762145_a_at) / Fold change /veh MAPK11 (11762145_a_at) / RFU FIZ1 (11724087_x_at) / Fold change /veh FIZ1 (11724087_x_at) / RFU OASL (11726364_x_at) / Fold change /veh OASL (11726364_x_at) / RFU SOX15 (11748057_x_at) / Fold change /veh SOX15 (11748057_x_at) / RFU CD79A (11719716_a_at) / Fold change /veh CD79A (11719716_a_at) / RFU HIST1H1D (11736915_at) / Fold change /veh HIST1H1D (11736915_at) / RFU CASKIN2 (11723855_a_at) / Fold change /veh CASKIN2 (11723855_a_at) / RFU LOC730098 (11760151_x_at) / Fold change /veh LOC730098 (11760151_x_at) / RFU OR4N2 (11742367_at) / Fold change /veh OR4N2 (11742367_at) / RFU PRRT2 (11749266_a_at) / Fold change /veh PRRT2 (11749266_a_at) / RFU SNX32 (11753110_a_at) / Fold change /veh SNX32 (11753110_a_at) / RFU CDHR5 (11726645_a_at) / Fold change /veh CDHR5 (11726645_a_at) / RFU RCAN1 (11760418_a_at) / Fold change /veh RCAN1 (11760418_a_at) / RFU FAM167A (11723789_a_at) / Fold change /veh FAM167A (11723789_a_at) / RFU FAM26E (11764081_at) / Fold change /veh FAM26E (11764081_at) / RFU ISYNA1 (11749810_s_at) / Fold change /veh ISYNA1 (11749810_s_at) / RFU ACY1 (11761880_at) / Fold change /veh ACY1 (11761880_at) / RFU 11764098_at / Fold change /veh 11764098_at / RFU SAMD14 (11745864_x_at) / Fold change /veh SAMD14 (11745864_x_at) / RFU NPB (11741838_a_at) / Fold change /veh NPB (11741838_a_at) / RFU TMPRSS6 (11731388_a_at) / Fold change /veh TMPRSS6 (11731388_a_at) / RFU KRTAP10-2 (11738614_at) / Fold change /veh KRTAP10-2 (11738614_at) / RFU ARHGAP8 /// PRR5-ARHGAP8 (11727945_x_at) / Fold change /veh ARHGAP8 /// PRR5-ARHGAP8 (11727945_x_at) / RFU KRTAP5-7 /// NADSYN1 (11734609_at) / Fold change /veh KRTAP5-7 /// NADSYN1 (11734609_at) / RFU RASL12 (11751679_a_at) / Fold change /veh RASL12 (11751679_a_at) / RFU CDKN2B (11736163_a_at) / Fold change /veh CDKN2B (11736163_a_at) / RFU PRF1 (11729649_at) / Fold change /veh PRF1 (11729649_at) / RFU, ZNF638 /// ZNF638-IT1 / Fold change vs veh, ZNF638 /// ZNF638-IT1 / RFU, PANK3 / Fold change vs veh, PANK3 / RFU, SH3YL1 / Fold change vs veh, SH3YL1 / RFU, ZEB2 / Fold change vs veh, ZEB2 / RFU, NRIP1 / Fold change vs veh, NRIP1 / RFU, PTTG1IP / Fold change vs veh, PTTG1IP / RFU, CAPN2 / Fold change vs veh, CAPN2 / RFU, MED14 / Fold change vs veh, MED14 / RFU, SNORA58 / Fold change vs veh, SNORA58 / RFU, C1orf63 / Fold change vs veh, C1orf63 / RFU, LRRFIP1 / Fold change vs veh, LRRFIP1 / RFU, NDUFAF7 / Fold change vs veh, NDUFAF7 / RFU, SLC12A2 / Fold change vs veh, SLC12A2 / RFU, IBTK / Fold change vs veh, IBTK / RFU, ESF1 / Fold change vs veh, ESF1 / Fold change vs veh, TMEM50B / RFU, TAOK1 / Fold change vs veh, TAOK1 / RFU, ACBD3 / Fold change vs veh, ACBD3 / RFU, TMA16 / Fold change vs veh, TMA16 / RFU, RWDD3 / Fold change vs veh, RWDD3 / RFU, BCAT1 / Fold change vs veh, BCAT1 / RFU, EDEM3 / Fold change vs veh, EDEM3 / RFU, TMEM33 / Fold change vs veh, TMEM33 / RFU, WDR75 / Fold change vs veh, WDR75 / RFU, AHCTF1 / Fold change vs veh, AHCTF1 / RFU, TFRC / Fold change vs veh, TFRC / RFU, ZDHHC17 / Fold change vs veh, ZDHHC17 / RFU, NOM1 / Fold change vs veh, NOM1 / RFU, ARL8B / Fold change vs veh, ARL8B / RFU, ZBTB11 / Fold change vs veh, ZBTB11 / RFU, TAMM41 / Fold change vs veh, TAMM41 / RFU, KIAA1704 /// LOC100996395 / Fold change vs veh, KIAA1704 /// LOC100996395 / RFU, ING1 / Fold change vs veh, ING1 / RFU, TRMT61B / Fold change vs veh, TRMT61B / RFU, FUBP3 / Fold change vs veh, FUBP3 / RFU, TP53 / Fold change vs veh, TP53 / RFU, TNKS2 / Fold change vs veh, TNKS2 / RFU, ZFP14 / Fold change vs veh, ZFP14 / RFU, ACTR2 / Fold change vs veh, ACTR2 / RFU, PPP3R1 / Fold change vs veh, PPP3R1 / RFU, PIK3R1 / Fold change vs veh, PIK3R1 / RFU, HNRNPA1 / Fold change vs veh, HNRNPA1 / RFU, RNF170 / Fold change vs veh, RNF170 / RFU, ZNF28 / Fold change vs veh, ZNF28 / RFU, RNGTT / Fold change vs veh, RNGTT / RFU, OGT / Fold change vs veh, OGT / RFU, BRD1 / Fold change vs veh, BRD1 / RFU, MARS / Fold change vs veh, MARS / RFU, ZNF655 / Fold change vs veh, ZNF655 / RFU, FAHD1 / Fold change vs veh, FAHD1 / RFU, BDP1 / Fold change vs veh, BDP1 / RFU, LRRCC1 / Fold change vs veh, LRRCC1 / RFU, ARID1A / Fold change vs veh, ARID1A / RFU, ZNF146 / Fold change vs veh, ZNF146 / RFU, ZNF330 / Fold change vs veh, ZNF330 / RFU, GPN3 / Fold change vs veh, GPN3 / RFU, C9orf123 / Fold change vs veh, C9orf123 / RFU, N4BP2L2 / Fold change vs veh, N4BP2L2 / RFU, ARFIP1 / Fold change vs veh, ARFIP1 / RFU, FAM179B / Fold change vs veh, FAM179B / RFU, BCL10 / Fold change vs veh, BCL10 / RFU, UHRF1BP1L / Fold change vs veh, UHRF1BP1L / RFU, BET1 / Fold change vs veh, BET1 / RFU, CNOT2 / Fold change vs veh, CNOT2 / RFU, ZNF268 / Fold change vs veh, ZNF268 / Fold change vs veh, ZNF507 / RFU, DGCR2 / Fold change vs veh, DGCR2 / RFU, WDSUB1 / Fold change vs veh, WDSUB1 / Fold change vs veh, HSP90B1 /// MIR3652 / RFU, ADSS / Fold change vs veh, ADSS / RFU, GK / Fold change vs veh, GK / RFU, ZNF148 / Fold change vs veh, ZNF148 / RFU, TAF9 / Fold change vs veh, TAF9 / RFU, SLC1A5 / Fold change vs veh, SLC1A5 / RFU, SLMO2 / Fold change vs veh, SLMO2 / RFU, ABCC4 / Fold change vs veh, ABCC4 / RFU, LOC101060439 /// RAP1B / Fold change vs veh, LOC101060439 /// RAP1B / RFU, RFX7 / Fold change vs veh, RFX7 / RFU, GTPBP10 / Fold change vs veh, GTPBP10 / RFU, CNEP1R1 / Fold change vs veh, CNEP1R1 / RFU, BIVM-ERCC5 /// ERCC5 / Fold change vs veh, BIVM-ERCC5 /// ERCC5 / RFU, ILF3 / Fold change vs veh, ILF3 / RFU 11762660_at / Fold change /veh 11762660_at / RFU VCAN (11757783_s_at) / Fold change /veh VCAN (11757783_s_at) / RFU DDX43 (11728927_at) / Fold change /veh DDX43 (11728927_at) / RFU KRT8 (11758188_x_at) / Fold change /veh KRT8 (11758188_x_at) / RFU NKD1 (11759106_at) / Fold change /veh NKD1 (11759106_at) / RFU SRD5A1 (11742802_a_at) / Fold change /veh SRD5A1 (11742802_a_at) / RFU TPSAB1 /// TPSB2 (11721975_s_at) / Fold change /veh TPSAB1 /// TPSB2 (11721975_s_at) / RFU GSTM3 (11746129_a_at) / Fold change /veh GSTM3 (11746129_a_at) / RFU IL23R (11737362_x_at) / Fold change /veh IL23R (11737362_x_at) / RFU TMEM51 (11727254_a_at) / Fold change /veh TMEM51 (11727254_a_at) / RFU PIWIL2 (11732686_x_at) / Fold change /veh PIWIL2 (11732686_x_at) / RFU ORM1 (11744905_x_at) / Fold change /veh ORM1 (11744905_x_at) / RFU CCDC152 (11743942_at) / Fold change /veh CCDC152 (11743942_at) / RFU ECM1 (11717891_a_at) / Fold change /veh ECM1 (11717891_a_at) / RFU IL23R (11748794_a_at) / Fold change /veh IL23R (11748794_a_at) / RFU TNFAIP8L3 (11732012_x_at) / Fold change /veh TNFAIP8L3 (11732012_x_at) / RFU MBOAT4 (11741988_at) / Fold change /veh MBOAT4 (11741988_at) / RFU 11764193_at / Fold change /veh 11764193_at / RFU TMEM53 (11763286_at) / Fold change /veh TMEM53 (11763286_at) / RFU MAGEB2 (11727129_at) / Fold change /veh MAGEB2 (11727129_at) / RFU TMEM200A (11744735_a_at) / Fold change /veh TMEM200A (11744735_a_at) / RFU CCDC152 (11751479_a_at) / Fold change /veh CCDC152 (11751479_a_at) / RFU FAM211A (11726209_a_at) / Fold change /veh FAM211A (11726209_a_at) / RFU RGS16 (11746705_a_at) / Fold change /veh RGS16 (11746705_a_at) / RFU VCAN (11755009_s_at) / Fold change /veh VCAN (11755009_s_at) / RFU RHOB (11743442_s_at) / Fold change /veh RHOB (11743442_s_at) / RFU RGS16 (11720943_a_at) / Fold change /veh RGS16 (11720943_a_at) / RFU RGS16 (11720944_at) / Fold change /veh RGS16 (11720944_at) / RFU, VPS4B / Fold change vs veh, VPS4B / RFU, CREB1 / Fold change vs veh, CREB1 / RFU, DNAJC13 / Fold change vs veh, DNAJC13 / RFU, GNAQ / Fold change vs veh, GNAQ / RFU, CDK5R1 / Fold change vs veh, CDK5R1 / RFU, ZRANB3 / Fold change vs veh, ZRANB3 / RFU, CUL4A / Fold change vs veh, CUL4A / RFU, CCNY / Fold change vs veh, CCNY / RFU, UFL1 / Fold change vs veh, UFL1 / RFU, COG3 / Fold change vs veh, COG3 / RFU, DIAPH2 / Fold change vs veh, DIAPH2 / RFU, SKA2 / Fold change vs veh, SKA2 / RFU, AFF3 / Fold change vs veh, AFF3 / RFU, LMF1 / Fold change vs veh, LMF1 / RFU, IPO11 / Fold change vs veh, IPO11 / RFU, DFFB / Fold change vs veh, DFFB / RFU, FOXP1 / Fold change vs veh, FOXP1 / RFU, CARD8 / Fold change vs veh, CARD8 / RFU, STRN3 / Fold change vs veh, STRN3 / RFU, ADK / Fold change vs veh, ADK / RFU, RASSF2 / Fold change vs veh, RASSF2 / RFU, WIPF1 / Fold change vs veh, WIPF1 / RFU, LARP1B / Fold change vs veh, LARP1B / RFU, RASA1 / Fold change vs veh, RASA1 / RFU, RB1 / Fold change vs veh, RB1 / RFU, PPFIA1 / Fold change vs veh, PPFIA1 / RFU, MAT2A / Fold change vs veh, MAT2A / RFU, CCT5 / Fold change vs veh, CCT5 / RFU, WDR92 / Fold change vs veh, WDR92 / RFU, CUX1 / Fold change vs veh, CUX1 / RFU, TTC7A / Fold change vs veh, TTC7A / RFU, TMEM135 / Fold change vs veh, TMEM135 / RFU, DEPTOR / Fold change vs veh, DEPTOR / RFU, CPM / Fold change vs veh, CPM / RFU, DNAJB6 / Fold change vs veh, DNAJB6 / RFU, CACNA2D3 / Fold change vs veh, CACNA2D3 / RFU, DTX4 / Fold change vs veh, DTX4 / RFU, TFCP2 / Fold change vs veh, TFCP2 / RFU, GMCL1 /// GMCL1P1 / Fold change vs veh, GMCL1 /// GMCL1P1 / RFU, AEBP2 / Fold change vs veh, AEBP2 / RFU, SNHG1 /// SNORD22 /// SNORD25 /// SNORD26 /// SNORD27 /// SNORD28 /// SNORD29 /// SNORD31 / Fold change vs veh, SNHG1 /// SNORD22 /// SNORD25 /// SNORD26 /// SNORD27 /// SNORD28 /// SNORD29 /// SNORD31 / Fold change (Aza/veh), C12orf56 (ProbeSet 11735607_a_at) / Fold change (ACY-1035/veh), C12orf56 (ProbeSet 11735607_a_at) / Fold change (Aza/veh), FGFR1OP (ProbeSet 11751329_s_at) / Fold change (ACY-1035/veh), FGFR1OP (ProbeSet 11751329_s_at) / Fold change (Aza/veh), VPS36 (ProbeSet 11739960_a_at) / Fold change (ACY-1035/veh), VPS36 (ProbeSet 11739960_a_at) / RFU SYPL1 (11715823_x_at) / Fold change /veh SYPL1 (11715823_x_at) / RFU IGFBP7 (11715501_s_at) / Fold change /veh IGFBP7 (11715501_s_at) / RFU REEP3 (11722064_at) / Fold change /veh REEP3 (11722064_at) / RFU IGLL1 (11728026_x_at) / Fold change /veh IGLL1 (11728026_x_at): dose or concentration left out as unconfirmed
Details: MV-4-11 cells, 48 hours

Nc1ncn([C@@H]2O[C@H](CO)[C@@H](O)[C@H]2O)c(=O)n1 [azacitidine]
Fold change /veh RNFT2 (11725882_a_at): 1.12
